# Test results as given in patent US8865623B2, “Herbicidally active cyclic diones and derivatives thereof, processes for their preparation, compositions, and method of controlling weeds” (Syngenta Limited, priority 2009, dated 2014).
# How the values were obtained:
# Assay type in all cases: in vivo
# [1] = tested on: Echinochloa crus-galli (ECHCG); test: Pre-emergence herbicidal activity, glasshouse pot test; conditions: evaluated after 13 days; for pest or weed control at 250 g/ha: Echinochloa crus-galli, 312 h, Rate 250 g/ha, read-out: Pre-emergence activity ECHCG (100=total damage to plant; 0=no damage to plant)
# Summary of the method: (§1)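 Sow seeds in standard soil in pots; grow 1 day (pre-emergence) or 8 days (post-emergence) at 24/16° C, 14 h light, 65% humidity. Spray aqueous solution from acetone/water 50:50 + 0.5% Tween 20 formulation. Grow on, watering twice daily; score damage 0–100 after 13 days.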
# [2] = tested on: Alopecurus myosuroides (ALOMY); test: as above; conditions: evaluated after 13 days; for pest or weed control at 250 g/ha: Alopecurus myosuroides, 312 h, Rate 250 g/ha, read-out: Pre-emergence activity ALOMY (100=total damage to plant; 0=no damage to plant)
# Summary of the method: as §1
# Avena fatua (AVEFA) [3] = test: as above; conditions: evaluated after 13 days; for pest or weed control at 250 g/ha: Avena fatua, 312 h, Rate 250 g/ha, read-out: Pre-emergence activity AVEFA (100=total damage to plant; 0=no damage to plant)
# Summary of the method: as §1
# Lolium perenne (LOLPE) [4] = test: as above; conditions: evaluated after 13 days; for pest or weed control at 250 g/ha: Lolium perenne, 312 h, Rate 250 g/ha, read-out: Pre-emergence activity LOLPE (100=total damage to plant; 0=no damage to plant)
# Summary of the method: as §1
# [5] = tested on: Echinochloa crus-galli (ECHCG); test: Post-emergence herbicidal activity, glasshouse pot test; conditions: rate 250 g/ha, evaluated after 13 days; for pest or weed control at 250 g/ha: Echinochloa crus-galli, 312 h, read-out: Post-emergence activity ECHCG (100=total damage to plant; 0=no damage to plant)
# Summary of the method: as §1
# [6] = tested on: Alopecurus myosuroides (ALOMY); test: as above; conditions: rate 250 g/ha, evaluated after 13 days; for pest or weed control at 250 g/ha: Alopecurus myosuroides, 312 h, read-out: Post-emergence activity ALOMY (100=total damage to plant; 0=no damage to plant)
# Summary of the method: as §1
# Avena fatua (AVEFA) [7] = test: as above; conditions: rate 250 g/ha, evaluated after 13 days; for pest or weed control at 250 g/ha: Avena fatua, 312 h, read-out: Post-emergence activity AVEFA (100=total damage to plant; 0=no damage to plant)
# Summary of the method: as §1
# Lolium perenne (LOLPE) [8] = test: as above; conditions: rate 250 g/ha, evaluated after 13 days; for pest or weed control at 250 g/ha: Lolium perenne, 312 h, read-out: Post-emergence activity LOLPE (100=total damage to plant; 0=no damage to plant)
# Summary of the method: as §1
SMILES,pest or weed control at 250 g/ha ([1]; pre-emergence spray) [%],pest or weed control at 250 g/ha ([2]; pre-emergence spray) [%],pest or weed control at 250 g/ha (Avena fatua (AVEFA) [3]; pre-emergence spray) [%],pest or weed control at 250 g/ha (Lolium perenne (LOLPE) [4]; pre-emergence spray) [%],pest or weed control at 250 g/ha ([5]; glasshouse) [%],pest or weed control at 250 g/ha ([6]; glasshouse) [%],pest or weed control at 250 g/ha (Avena fatua (AVEFA) [7]; glasshouse) [%],pest or weed control at 250 g/ha (Lolium perenne (LOLPE) [8]; glasshouse) [%],also measured
CCCOC(=O)OC1=C(c2cc(Oc3ccc(C#N)cc3F)ccc2CC)C(=O)C(C)(C)OC1(C)C [Example P-6],–,–,–,–,–,–,–,–,"ECHCG damage to plant (100=total damage to plant; 0=no damage to plant) ([1]; pre-emergence, rate 250 g/ha): 100; ALOMY damage to plant (100=total damage to plant; 0=no damage to plant) ([2]; pre-emergence, rate 250 g/ha): 80; AVEFA damage to plant (100=total damage to plant; 0=no damage to plant) (Avena fatua (AVEFA) [3]; pre-emergence, rate 250 g/ha): 20; LOLPE damage to plant (100=total damage to plant; 0=no damage to plant) (Lolium perenne (LOLPE) [4]; pre-emergence, rate 250 g/ha): 90; ECHCG damage to plant (100=total damage to plant; 0=no damage to plant) [5]: 90; ALOMY damage to plant (100=total damage to plant; 0=no damage to plant) [6]: 90; AVEFA damage to plant (100=total damage to plant; 0=no damage to plant) (Avena fatua (AVEFA) [7]): 50; LOLPE damage to plant (100=total damage to plant; 0=no damage to plant) (Lolium perenne (LOLPE) [8]): 70"
CCc1ccc(Oc2cccc(F)c2F)cc1C1=C(O)C(C)(C)OC(C)(C)C1=O [Example A-16],100,0,0,0,80,0,0,20,–
CCc1ccc(Oc2cnc3cc(Cl)ccc3n2)cc1C1=C(O)CC2(CCOCC2)CC1=O [Example A-233],100,70,70,90,100,100,100,100,–
CC1(C)OC(C)(C)C(O)=C(c2cc(Oc3ncc(Cl)cc3C(F)(F)F)ccc2C2CC2)C1=O [Example A-377],–,–,–,–,–,–,–,–,pest or weed control at 250 g/ha ([1]; pre-emergence): 100%; pest or weed control at 250 g/ha ([2]; pre-emergence): 70%; pest or weed control at 250 g/ha (Avena fatua (AVEFA) [3]; pre-emergence): 60%; pest or weed control at 250 g/ha (Lolium perenne (LOLPE) [4]; pre-emergence): 80%; pest or weed control at 250 g/ha [5]: 100%; pest or weed control at 250 g/ha [6]: 100%; pest or weed control at 250 g/ha (Avena fatua (AVEFA) [7]): 100%; pest or weed control at 250 g/ha (Lolium perenne (LOLPE) [8]): 100%
CCc1ccc(Oc2ccc(C(F)(F)F)cc2Cl)cc1C1=C(O)CC2(CCOCC2)CC1=O [Example A-271],100,90,50,90,100,90,90,70,–
CCc1ccc(Oc2nc3ccc(Cl)cc3o2)cc1C1=C(O)C(C)(C)OC(C)(C)C1=O [Example A-188],90,90,90,100,100,100,100,100,–
CCc1ccc(Oc2ccc([N+](=O)[O-])cc2C(F)(F)F)cc1C1=C(O)CC2(CCOCC2)CC1=O [Example A-309],70,40,0,20,100,50,70,50,–
CCc1ccc(Oc2cccc(F)c2)cc1C1=C(O)C(C)(C)OC(C)(C)C1=O [Example A-58],70,0,0,0,80,0,0,0,–
CCc1ccc(Oc2ncc(Br)cn2)cc1C1=C(O)CC(C)(C)CC1=O [Example A-297],100,70,50,100,100,100,100,100,–
